{"source": "patent US20100048479A1", "about": "“ADRENAL GRK2 ACTIVITY AS A THERAPEUTIC TARGET FOR HEART FAILURE” (priority 2006, published 2010)", "key": {"[1]": {"test_system": "CSQ/Tg mouse-derived chromaffin cells", "test": "In vitro catecholamine secretion from chromaffin cells of CSQ/Tg and NLC mice (nicotine stimulus, UK14304 pre-treatment)", "format": "cell-based", "details": "for Inhibition of Epi and NE secretion in response to nicotine: 10 μM UK14304 pre-treatment; for EC50: Mus musculus, n=6", "description": "(§1) Experimental Procedures: Adrenal chromaffin cell isolation and culture: The animal models of heart failure: mice with myocardial-targeted overexpression of calsequestrin (CSQ/Tg mice); male Sprague-Dawley rats (450-500 g; Harlan) ten weeks post-cryo-myocardial infarction (cryo-MI) (HF rats); as well as CSQ/βARKct mice, were previously established and characterized. Harding et al., 98 P.N.A.S. USA, 5809-14 (2001); Most et al., 114 J. Clin. Invest. 1550-63 (2004). Nontransgenic littermate mice were used as healthy controls for the mouse heart failure model. Chromaffin cells were isolated from adrenal glands excised from these animals and cultured as described previously in Brede et al., 2003. […] Cells from separate isolations were used in each experiment.\n(§2) Plasma and in vitro catecholamine secretion measurements: Plasma Epi and NE levels were determined by ELISA, performed on rat and mouse plasma samples with the BI-CAT EIA kit from ALPCO Diagnostics (Windham, N.H.). In vitro Epi and NE secretion in the supernatant of cultured chromaffin cells was measured by use of the same ELISA kit essentially as described previously by Wilson & Kirschner, 3J. Neurosci. 1971-78 (1983). In vitro catecholamine (CA) secretion measurements. Briefly, 48 hrs post-isolation, chromaffin cells were placed in a balanced salts buffer and stimulated with 20 μM nicotine for 30 min, following pre-treatment with 10 μM UK14304 (Sigma-Aldrich) or vehicle for 30 min. At the end of nicotine treatment, the supernatant was collected for determination of its CA content. Adenoviral-transfected cells were infected 48 hrs post-isolation and cells were subjected to the various treatments 24 hrs after transfection (72 hrs post-isolation). In all experiments, the supernatants used for CA measurements were collected from cultures of equal numbers of cells as determined by cell counting and post-experiment protein determination in harvested cells."}, "HF rat chromaffin cells": {"test_system": "HF rat chromaffin cells", "test": "In vitro catecholamine secretion from chromaffin cells of HF and sham rats (nicotine stimulus, UK14304 pre-treatment)", "format": "cell-based", "details": "for EC50: Rattus norvegicus", "description": "as §1, §2"}, "[2]": {"test_system": "chromaffin cells isolated from HF or sham-operated rats", "details": "10 μM UK14304 pretreatment", "protocol": "Calibration and assessment of intracellular Ca^2+ transients in chromaffin cells in response to K^+-induced depolarization were performed essentially as described. Brede, 2003; Zhou & Neher, 469 J. Physiol. 245-73 (1993). Changes in intracellular Ca^2+ were monitored fluorimetrically using the Ca^2+-sensitive probe Fura 2 (1 μM). The recording system included a Zeiss, Axiovert S170 inverted microscope fitted with epifluorescence (monochromator TILL Polychrome II, Germany). Cells were alternatively illuminated at 340 nm and 380 nm at a frequency of 140 Hz. Emission for each excitation wavelength was filtered at 510 nm and digitized using interface (EPC9, HEKA, Germany). […] Chromaffin cells isolated from HF or sham-operated rats were exposed to 10 μM UK14304 or vehicle for 30 min in culture medium containing a fixed Ca^2+ concentration of 2.5 mM, and then 150 mM KCl was added to induce depolarization. Only round-shaped, healthy, and attached chromaffin cells with a resting 340/380 ratio lower than 1 were selected for measurement."}, "[3]": {"test_system": "rat primary chromaffin cells", "test": "βarr1 membrane recruitment in rat primary chromaffin cells", "format": "cell-based", "details": "cells infected with GFP, 10 μM UK14304 for 8 min", "procedure": "β-arrestin membrane recruitment: βarr1 recruitment to rat primary chromaffin cell membranes or whole adrenal gland-derived plasma membranes was measured by western blotting in membrane preparations, essentially as described previously in Perry et al., 198 Science 834-36 (2002). Cultured chromaffin cells, isolated from rat adrenal glands, were transfected with the indicated recombinant adenoviruses and 24 hrs post-infection they were treated with vehicle or 10 μM UK14304 for 8 min. The cells were then harvested and plasma membranes prepared by hypotonic lysis with 5 mM TrisCl, 5 mM EDTA, pH 7.4, and subsequent ultracentrifugation at 47.000×g. The membranes were resuspended in RIPA buffer, containing Triton 0.5% and protease inhibitors, and then fractions of membrane lysates containing 50 μg of protein were loaded for SDS-PAGE, and subsequently western blotted with an antibody against rat βarr1 and −2 (A1CT40, a generous gift from Dr. R. J. Lefkowitz, Duke Univ. Medical Center, Durham, N.C.). Plasma membrane preparations from whole adrenal glands excised from in vivo infected rats were obtained by the same procedure. Blotting for actin in the same membrane lysates was also performed as loading control. βarr1 membrane recruitment was quantified as the densitometric ratio of βarr1 and actin bands detected in each sample."}, "chromaffin cells": {"test_system": "chromaffin cells", "protocol": "as §2\nFollowing this period, in vitro CA secretion assays were performed using nicotine to activate nicotinic cholinergic receptors (the physiological stimulus for CA secretion from these cells) and the α2AR agonist UK14304 to activate these negative feedback receptors."}, "α2AR [4]": {"test_system": "α2AR", "test": "Moxonidine treatment of HF rats, plasma catecholamine levels", "format": "in vivo, rat", "details": "7d of moxonidine 1 mg/kg/d intraperitoneally", "protocol": "In vivo adrenal gene delivery: All animal procedures and experiments were performed in accordance with the guidelines of the Institutional Animal Care and Use Committee of Thomas Jefferson University. For adrenal-specific in vivo gene delivery in HF rats, adenovirus was delivered directly to the adrenal gland using a surgical technique. Rats with chronic heart failure ten weeks after myocardial infarction were directly injected with virus into both of their adrenal glands, immediately after a transversal cut of the median abdomen was made and ventral visceral organs temporarily placed on the side so as to expose the retroperitoneal region. […] HF rats were treated with either AdβARKct or AdGFP as a control. […] For moxonidine treatment of HF rats, systemic administration of 1.0 mg/kg/d of moxonidine (delivered via a daily intraperitoneal injection) was initiated at the time of in vivo adrenal gene delivery and continued for seven days, at which time plasma was taken for determination of circulating catecholamine levels (see below).\nas §2, with “Adenoviral-transfected cells were infected 48 hrs post-isolation and cells were subjected to the various treatments 24 hrs after transfection (72 hrs post-isolation).” left out"}, "α2AR [5]": {"test_system": "α2AR", "details": "MOXSE and MOXCON trials; cited from earlier work"}, "α2AR [6]": {"test_system": "α2AR", "details": "HF animal models and human heart failure patients; cited from earlier work"}}, "note": "Like-named read-outs stand apart in the source and are kept apart here."}
{"smiles": "Brc1c(NC2=NCCN2)ccc2nccnc12", "note": "[UK14304]", "values": [{"measurement": "Inhibition of Epi and NE secretion in response to nicotine", "setting": "[1]; CSQ/Tg mouse-derived chromaffin cells", "result": "completely fails to inhibit"}, {"measurement": "EC50", "setting": "[1]; CSQ/Tg mouse-derived chromaffin cells, AdGFP cells, mean±s.e.m., read-out: EC50 of UK14304-mediated inhibition of Epi secretion", "result": "5500 ± 1300", "unit": "nM"}, {"measurement": "EC50", "setting": "[1]; CSQ/Tg mouse-derived chromaffin cells, AdGFP cells, read-out: EC50 of UK14304-mediated inhibition of NEpi secretion", "result": "8000 ± 2630", "unit": "nM"}, {"measurement": "EC50", "setting": "[1]; CSQ/Tg mouse-derived chromaffin cells, AdβARKct cells, read-out: EC50 of UK14304-mediated inhibition of Epi secretion", "result": "200 ± 1.5", "unit": "nM"}, {"measurement": "EC50", "setting": "[1]; CSQ/Tg mouse-derived chromaffin cells, AdβARKct cells, read-out: EC50 of UK14304-mediated inhibition of NEpi secretion", "result": "50 ± 1.4", "unit": "nM"}, {"measurement": "Inhibition of Epi and NE secretion in response to nicotine", "setting": "[1]; control (NLC) cells", "result": "attenuates catecholamine release"}, {"measurement": "Catecholamine secretion, UK14304 pre-treatment alone", "setting": "[1]; without nicotine", "result": "no effect"}, {"measurement": "Inhibition of secretion of both catecholamines in response to nicotine", "setting": "HF rat chromaffin cells; 10 μM UK14304 pre-treatment", "result": "fails to inhibit secretion"}, {"measurement": "EC50", "setting": "HF rat chromaffin cells; AdGFP cells, n=6, read-out: EC50 of UK14304-mediated inhibition of Epi secretion", "result": "6400 ± 2500", "unit": "nM"}, {"measurement": "EC50", "setting": "HF rat chromaffin cells; AdGFP cells, n=6, read-out: EC50 of UK14304-mediated inhibition of NEpi secretion", "result": "680 ± 25.1", "unit": "nM"}, {"measurement": "EC50", "setting": "HF rat chromaffin cells; AdβARKct cells, n=6, read-out: EC50 of UK14304-mediated inhibition of Epi secretion", "result": "100 ± 5.2", "unit": "nM"}, {"measurement": "EC50", "setting": "HF rat chromaffin cells; AdβARKct cells, n=6, read-out: EC50 of UK14304-mediated inhibition of NEpi secretion", "result": "110 ± 1.2", "unit": "nM"}, {"measurement": "Depolarization-induced Ca2+ entry", "setting": "[2]; HF chromaffin cells", "result": "fails to significantly alter"}, {"measurement": "Depolarization-induced Ca2+ entry", "setting": "[2]; control (sham) cells", "result": "significantly inhibited"}, {"measurement": "βarr1 recruitment to chromaffin cell membranes in response to α2AR stimulation", "setting": "[3]", "result": "large βarr1 recruitment"}, {"measurement": "Ability of UK14304 to inhibit CA secretion", "setting": "chromaffin cells; cells from AdβARKct-treated rats, 10 μM UK14304", "result": "normal and similar to control cells"}, {"measurement": "Effect of UK14304 on CA secretion in response to nicotine", "setting": "chromaffin cells; chromaffin cells from AdGRK2-treated rats, 10 μM UK14304", "result": "lost"}, {"measurement": "Effect of UK14304 on CA secretion in response to nicotine", "setting": "chromaffin cells; chromaffin cells from control AdGFP-treated rats, 10 μM UK14304", "result": "abolishes CA secretion"}]}
{"smiles": "COc1nc(C)nc(Cl)c1N=C1NCCN1", "note": "[moxonidine]", "values": [{"measurement": "Circulating Epi levels", "setting": "α2AR [4]; adrenal AdGFP-treated HF rats", "result": "virtually no effect"}, {"measurement": "Circulating NEpi levels", "setting": "α2AR [4]; adrenal AdGFP-treated HF rats", "result": "lowered"}, {"measurement": "NE and Epi plasma levels", "setting": "α2AR [4]; adrenal AdβARKct-treated HF rats", "result": "further significantly reduced"}, {"measurement": "Reason for early termination of the trials", "setting": "α2AR [5]", "result": "excessive adverse effects and fatalities"}, {"measurement": "SNS activity in heart failure patients", "setting": "α2AR [5]", "result": "significant reduction of SNS activity"}]}
{"smiles": "Clc1cccc(Cl)c1N=C1NCCN1", "note": "[clonidine]", "values": [{"measurement": "Sympatholytic response to clonidine administration", "setting": "α2AR [6]", "result": "diminished sympatholytic responses"}]}
{"smiles": "CN1CCCC1c1cccnc1", "note": "(stereo not shown) [nicotine]", "values": [{"measurement": "Nicotine-stimulated Epi and NE secretion", "setting": "chromaffin cells; chromaffin cells from AdGFP-, AdGRK2- and AdβARKct-treated rats, 20 μM nicotine", "result": "to an equal extent"}]}
